This is an account of results in patent US8519136B2, “Aminopyridine derivatives having aurora a selective inhibitory action” (MSD K.K., priority 2008, dated 2013).

For assay [1], the system named is Human cervical cancer cells (HeLa S3). In words: Effect by combined use of drugs in cells (with docetaxel), WST-8 method. The format is cell-based. The note with it: HeLa S3, three days; for inhibition at 0.03 µM: compound 30 nM alone. Here is the method:
Fetal calf serum (FCS) was purchased from Moregate Biotech, DMEM medium from Invitrogen Corp., docetaxel (tradename: Taxere) from Sigma-Aldrich, Inc., and WST-8 from Kishida Chemical Co., Ltd.
(§1) Human cervical cancer cells (HeLa S3) were obtained from the American Type Culture Collection (ATCC).
Cells were suspended in a DMEM medium containing 10% FCS, and the cell suspension was dispensed to two 96-well plastic plates at a rate of 750 cells/100 microliters per well. The plates were incubated overnight in 5% CO2-95% air at 37° C. A drug was subjected to graded dilution in dimethylsulfoxide and further diluted with DMSO or with a DMEM medium containing 10% FCS and also containing 0.6 nM docetaxel. Then, the dilutions were each dispensed to one of the plates on which cells had been disseminated, at a rate of 100 microliters per well. The final concentration of docetaxel at this stage was 0.3 nM. Also, the concentrations in the case of sole administration of the compound according to the invention were 0.003, 0.01, 0.03, 0.1, 0.3, 1, 3 and 10 μM. The plates were incubated for further three days in 5% CO2-95% air at 37° C. Cell growth after incubation was measured by the WST-8 method (H. Tominaga, et al., Anal. Commun., 36, 47-50 (1999)). Here, the WST-8 method refers to a method in which 20 microliters of a WST-8 reagent solution is added to each well, incubation is conducted at 37° C. for 60 minutes, the plate is stirred, and the amount of formazan produced is measured by a colorimetric method to determine the inhibitory rate of the drug. The growth inhibitory effects of docetaxel and of the compound according to the invention were determined, with the value obtained in sole treatment of DMSO being defined as 0%.

Assay [2] shares this test system. In words: Cell growth inhibitory effect, WST-8 method. The format is cell-based. The note with it: 72 h, HeLa S3, three days incubation, read-out: Cell growth inhibitory effect (HeLaS3) (IC50). Here is the method:
Fetal calf serum (FCS) was purchased from Moregate Biotech, and DMEM medium was purchased from Invitrogen Corp. WST-8 was purchased from Kishida Chemical Co., Ltd.
as §1
Cells were suspended in a DMEM medium containing 10% FCS, and the cell suspension was dispensed to a 96-well plastic plate at a rate of 750 cells/100 microliters per well. The plate was incubated overnight in 5% CO2-95% air at 37° C. A drug was subjected to graded dilution in dimethylsulfoxide and further diluted with a DMEM medium containing 10% FCS. Then, the dilution was dispensed to the plate on which cells had been disseminated, at a rate of 100 microliters per well. The plate was incubated for further three days in 5% CO2-95% air at 37° C. Cell growth after incubation was measured by the WST-8 method (H. Tominaga, et al., Anal. Commun., 36, 47-50 (1999)). Here, the WST-8 method refers to a method in which 20 microliters of a WST-8 reagent solution is added to each well, incubation is conducted at 37° C. for 60 minutes, the plate is stirred, and the amount of formazan produced is measured by a colorimetric method to determine the inhibitory rate of the drug. The concentration for 50% growth inhibition (IC50, μM) of the compound was determined.
For orientation: Tetrazolium assays rely on reduction of a dye to a coloured formazan, in cell work by metabolically active cells.

The target of assay [3] is T1, His-tagged human Aurora A (Homo sapiens, UniProt O14965).
T1 construct: His (N); made in house; host or cells: Escherichia coli BL21-CodonPlus(DE3)-RIL
T1 sequence (O14965 1-403): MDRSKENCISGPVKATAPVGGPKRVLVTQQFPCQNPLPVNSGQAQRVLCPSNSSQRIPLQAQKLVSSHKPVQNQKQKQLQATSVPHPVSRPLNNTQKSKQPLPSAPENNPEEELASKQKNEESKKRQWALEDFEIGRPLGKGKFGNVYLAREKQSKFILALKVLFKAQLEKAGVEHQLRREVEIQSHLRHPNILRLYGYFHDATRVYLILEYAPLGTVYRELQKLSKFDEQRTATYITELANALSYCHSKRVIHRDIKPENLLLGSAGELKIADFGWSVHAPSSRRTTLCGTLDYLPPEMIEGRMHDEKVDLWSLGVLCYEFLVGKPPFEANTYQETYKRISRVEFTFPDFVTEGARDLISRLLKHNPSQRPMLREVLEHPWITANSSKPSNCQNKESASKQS
In words: Aurora A inhibitory activity (IMAP fluorescence polarization). The note with it: 20 μM ATP, 30° C., 120 minutes. In kind it is biochemical. An excerpt:
cDNA of N-terminal His-tagged human Aurora A was integrated into an expression vector, which was then highly expressed in Escherichia coli BL21-CodonPlus(DE3)-RIL cells. The Escherichia coli was harvested and lysed, and then the His-tagged human Aurora A protein was applied onto a nickel chelate column and eluted from the column with imidazole. The active fractions were desalted with a desalting column to give a purified enzyme.
For measurement of the activity of Aurora A, the substrate used was a synthetic peptide (5-FAM (5-carboxyfluorescein)-γ-aminobutyric acid-Ala-Leu-Arg-Arg-Ala-Ser-Leu-Gly-NH2) (SEQ.ID.NO.: 1), which was purchased from Toray Research Center, Inc.
For the phosphorylation reaction, the method by Upstate, Inc. [Kinase Profiler™ Assay Protocols] was referred to, and phosphorylation of the substrate was detected using IMAP® technology (Molecular Devices, Co. Ltd.) (Gaudet E W. et. al, J. Biomol. Screen, 8, 164-175 (2003)). Concretely, the phosphorylation reaction and the detection were carried out as follows:
The phosphorylation reaction was conducted using 384 well plate, and the reaction volume was 10 μl/well. The reaction buffer is comprised of 50 mM Tris-chloride buffer (pH 7.4), 15 mM magnesium acetate, and 0.2 mM ethylenediamine-N,N,N′,N′-tetraacetic acid (EDTA). Thereto, the purified Aurora A protein, 100 nM of the peptide substrate, and 20 μM of adenosine 5′-triphosphate (ATP) were added, and then the reaction was carried out at 30° C. for 120 minutes.
Thereafter, in order to terminate and detect the reaction, 30 μl of the IMAP (registered trademark) binding reagent (IMAP Progressive Binding Reagent, R7284) that had been diluted (1:400) in the 1×IMAP binding buffer A (IMAP Progressive Binding Buffer A, 5× stock, R7282) was added to each well. The solution stood still for 60 minutes in the dark, and then fluorescence polarization was measured using a high-end microplate reader (excitation wavelength: 485 nm; emission wavelength: 520 nm).
The compound to be tested was added to the reaction system such that a dilution series of the compound in dimethylsulfoxide (DMSO) was prepared, and then 0.5 μL of this solution was added for the testing to each well. Each control well was provided by adding 0.5 μL of DMSO to the well in place of the DMSO solution containing the compound to be tested.
(Fluorescence polarisation rises when a labelled molecule tumbles more slowly, as on binding a larger partner.)

The target in assay [4] is T2, GST-tagged human Aurora B(AurB)/His-tagged human INCENP complex proteins (Homo sapiens, UniProt Q96GD4).
T2 construct: GST; purchased Carna Biosciences, Inc
T2 sequence (Q96GD4 whole entry): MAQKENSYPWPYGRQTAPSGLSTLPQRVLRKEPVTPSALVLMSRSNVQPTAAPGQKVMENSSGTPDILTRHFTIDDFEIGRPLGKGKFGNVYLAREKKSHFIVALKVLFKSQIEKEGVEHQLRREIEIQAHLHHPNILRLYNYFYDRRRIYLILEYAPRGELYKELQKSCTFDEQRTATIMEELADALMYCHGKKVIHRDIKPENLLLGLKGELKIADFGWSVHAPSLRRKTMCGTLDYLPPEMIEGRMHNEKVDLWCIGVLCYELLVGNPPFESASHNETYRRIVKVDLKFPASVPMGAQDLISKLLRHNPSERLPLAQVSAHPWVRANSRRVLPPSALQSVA
T2 sequence (Q9NQS7 803-916 partner limits assumed): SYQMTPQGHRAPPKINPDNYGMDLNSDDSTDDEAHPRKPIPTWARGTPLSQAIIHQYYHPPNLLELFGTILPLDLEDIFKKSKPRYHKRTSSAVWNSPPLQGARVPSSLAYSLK
Nature of the assay: Aurora B inhibitory activity (Method A, IMAP kit). In kind it is biochemical. The note with it: 40 μM ATP, 25° C., 45 minutes. Here is the method: An assay development kit for IMAP (registered trademark) (Aurora B), purchased from Carna Biosciences, Inc., was used for phosphorylation reaction, and the phosphorylation of a substrate was detected using the IMAP technology. The assay development kit used is comprised of an assay buffer, GST-tagged human Aurora B(AurB)/His-tagged human INCENP complex proteins (amino acid sequence: 803-916, AAU04398.1), and an ATP/substrate solution. Using the same, the phosphorylation reaction was conducted in accordance with a partially revised protocol attached to the kit, and then the phosphorylation of the substrate was detected using the IMAP technology.
For the phosphorylation reaction, 384 well plate was used, and the reaction volume was 10 μl/well. The composition of the reaction buffer (assay buffer) is comprised of 20 mM of HEPES buffer (pH 7.4), 0.01% Tween-20, and 2 mM of dithiothreitol (DTT). Thereto, AurB/INCENP complex protein, 100 nM of the substrate, and 40 μM of ATP, and 1 mM of magnesium salt were added, and then the reaction was conducted at 25° C. for 45 minutes. Thereafter, in order to terminate and detect the reaction, 30 μl of the IMAP (registered trademark) binding reagent (IMAP Progressive Binding Reagent, R7284) that had been diluted (1:400) in the 1×IMAP binding buffer A (IMAP Progressive Binding Buffer A, 5× stock, R7282) was added to each well. The solution stood still for 60 minutes in the dark, and then fluorescence polarization was measured using a high-end microplate reader (excitation wavelength: 485 nm; emission wavelength: 520 nm).
The compound to be tested was added to the reaction system such that a dilution series of the compound in DMSO was prepared, and then 0.5 μL of this solution was added for the testing to each well. Each control well was provided by adding 0.5 μL of DMSO to the well in place of the DMSO solution containing the compound to be tested.

Where [5] appears, read: Homo sapiens, HeLa S3, 72 h, read-out: Cell growth inhibitory effect by sole administration of the compound of Example (%).
The mark [6] stands for this setting: compound 30 nM + docetaxel 0.3 nM.

Where a name gives a salt, the structure may show the parent alone.

One may read the IC50 as the concentration that inhibits the measured activity by half. For the molecule `O=C(c1cccc(C(F)(F)F)c1F)N1CCC(Cc2cccc(Nc3cc[nH]n3)n2)(c2n[nH]c(=O)o2)CC1` [Example 9, 5-(1-(2-fluoro-3-(trifluoromethyl)benzoyl)-4-((6-(1H-pyrazol-3-ylamino)pyridin-2-yl)methyl)piperidin-4-yl)-1,3,4-oxadiazol-2(3H)-one], the inhibition at 0.03 µM in assay [1] (setting [5]) amounted to 20.3%. Also, in assay [1] (setting [6]), the “Cell growth inhibitory effect by combined administration of docetaxel and the compound of Example (%)” value worked out at 90.9%. Further, the IC50 in assay [2] was found to be 220 nM; in assay [3], 0.25 nM; in assay [4], 35.8 nM.
On the same counts, the results for `O=C(c1cccc(Cl)c1F)N1CCC(Cc2cccc(Nc3cc[nH]n3)n2)(c2n[nH]c(=O)o2)CC1` [Example 10, 5-(1-(3-chloro-2-fluorobenzoyl)-4-((6-(1H-pyrazol-3-ylamino)pyridin-2-yl)methyl)piperidin-4-yl)-1,3,4-oxadiazol-2(3H)-one trifluoroacetate] are 3.3%, 84.8%, 280 nM, 0.27 nM and 166 nM.
Consider `O=C(c1cccc(Cl)c1F)N1CCC(Cc2cc(-c3ccccc3)cc(Nc3cc[nH]n3)n2)(c2n[nH]c(=O)o2)CC1` [Example 17, 5-(1-(3-chloro-2-fluorobenzoyl)-4-((4-phenyl-6-(1H-pyrazol-3-ylamino)pyridin-2-yl)methyl)piperidin-4-yl)-1,3,4-oxadiazol-2(3H)-one], for which, in assay [1] (Homo sapiens, HeLa S3, 72 h, compound 10 nM alone, read-out: Cell growth inhibitory effect by sole administration of the compound of Example (%)), the inhibition at 0.01 µM turned out to be 4.2%. In assay [1] (compound 10 nM + docetaxel 0.3 nM), the “Cell growth inhibitory effect by combined administration of docetaxel and the compound of Example (%)” value came to 80.8%. Also, the concentration for half-maximal inhibition (IC50) in assay [2] amounted to 100 nM; in assay [3], 0.3 nM; in assay [4], 381 nM.
